Molecules are shown by their SMILES. Read-outs that look alike come from different tables or passages of the source. Square brackets hold non-standard residues; d marks the D form. Peptide text beside a SMILES is read from it. Cit = NC(=O)NCCC[C@H](N)C(=O)O Bounds are passed on as bounds.

The target of test [1] is T1, HLA-DRB1*01:01 (Homo sapiens, UniProt P01903+P01911, A100R/D57E/F55L/F60I/F76Y/I96L/L162R/M171V/P40L/Q125E/R42F/V115G/Y59C).
T1 construct: EBV transformed homozygous cell lines were used as sources of MHC molecules; endogenous in cells; host or cells: EBV transformed homozygous cell lines
Put plainly: HLA class II peptide binding, inhibition of radiolabeled peptide binding to purified MHC.

For test [2], the target named is T2, HLA-DRB1*04:01 (Homo sapiens, UniProt P01903+P01911, A100K/A169T/F76Y/I96L/K127E/L162R/M171V/N62H/P40V/Q125Y/R42H/S133A/S149N/S66Y/V115G/V209L/W38E).
T2 construct: EBV transformed homozygous cell lines were used as sources of MHC molecules; endogenous in cells; host or cells: EBV transformed homozygous cell lines
The test is described as above.

[3] abbreviates: citrullinated 15-mer peptide (X = citrulline), purified HLA-DRB1*01:01, read-out: DRB1*01:01 binding capacity, Cit peptide (IC50 nM).
Where [4] appears, read: citrullinated 15-mer (X), purified MHC, inhibition of radiolabeled peptide binding, dash = IC50 >40,000 nM, read-out: DRB1*01:01 binding capacity, Cit peptide (IC50 nM).
[5] abbreviates: citrullinated 15-mer (X), purified MHC, inhibition of radiolabeled peptide binding, dash = IC50 >40,000 nM, read-out: DRB1*04:01 binding capacity, Cit peptide (IC50 nM).

Turning to `CC[C@H](C)[C@H](NC(=O)[C@H](CCC(N)=O)NC(=O)[C@H](CC(N)=O)NC(=O)[C@H](CC(N)=O)NC(=O)[C@H](CC(C)C)NC(=O)[C@@H](N)CO)C(=O)N[C@@H](CCC(=O)O)C(=O)N[C@@H](CO)C(=O)N[C@H](C(=O)N[C@@H](CCCNC(N)=O)C(=O)N[C@@H](CO)C(=O)N1CCC[C@H]1C(=O)N[C@@H](CCC(=O)O)C(=O)NCC(=O)N[C@@H](CO)C(=O)O)[C@@H](C)CC` [SLNNQIESIXSPEGS] (H-SLNNQIESI[Cit]SPEGS-OH), the IC50 in test [1] (citrullinated peptide as listed (X at Cit position), read-out: DRB1*01:01 binding capacity Cit peptide (IC50 nM)) stood at 6.5 nM; in test [2] (citrullinated peptide as listed (X at Cit position), read-out: DRB1*04:01 binding capacity Cit peptide (IC50 nM)) it was 18 nM.
With `CC[C@H](C)[C@H](NC(=O)CN)C(=O)N[C@H](C(=O)NCC(=O)N[C@@H](CC(C)C)C(=O)N1CCC[C@H]1C(=O)NCC(=O)N[C@@H](CCC(N)=O)C(=O)N[C@@H](CCCNC(=N)N)C(=O)NCC(=O)N[C@@H](CCC(=O)O)C(=O)N[C@@H](CCCNC(N)=O)C(=O)NCC(=O)N[C@@H](Cc1ccccc1)C(=O)N1CCC[C@H]1C(=O)O)C(C)C` [GIVGLPGQRGEXGFP] (H-GIVGLPGQRGE[Cit]GFP-OH), the IC50 in test [1] (setting [3]) worked out at 6.7 nM; in test [2] (citrullinated 15-mer peptide (X = citrulline), purified HLA-DRB1*04:01, read-out: DRB1*04:01 binding capacity, Cit peptide (IC50 nM)), 5800 nM.
On to `CC(C)C[C@H](NC(=O)[C@H](C)NC(=O)[C@H](CO)NC(=O)CNC(=O)[C@H](CC(C)C)NC(=O)[C@H](CO)NC(=O)[C@H](Cc1ccc(O)cc1)NC(=O)[C@@H](NC(=O)[C@H](CCCNC(N)=O)NC(=O)[C@@H](NC(=O)[C@H](CO)NC(=O)[C@@H](NC(=O)[C@@H](NC(=O)[C@@H](N)C(C)C)[C@@H](C)O)[C@@H](C)O)[C@@H](C)O)[C@@H](C)O)C(=O)N[C@@H](CCCNC(=N)N)C(=O)O` [VTTSTXTYSLGSALR] (H-VTTST[Cit]TYSLGSALR-OH), for which the IC50 worked out at 7.2 nM in test [1] (setting [4]) and 1480 nM in test [2] (setting [5]).
Take `CC[C@H](C)[C@H](NC(=O)[C@@H](N)CC(=O)O)C(=O)N[C@@H](CCSC)C(=O)N[C@@H](CCCNC(N)=O)C(=O)N[C@@H](CC(C)C)C(=O)N[C@@H](CCCNC(=N)N)C(=O)N[C@@H](CCC(=O)O)C(=O)N[C@@H](CCCCN)C(=O)N[C@@H](CC(C)C)C(=O)N[C@@H](CCC(N)=O)C(=O)N[C@@H](CCC(=O)O)C(=O)N[C@@H](CCC(=O)O)C(=O)N[C@@H](CCSC)C(=O)N[C@@H](CC(C)C)C(=O)N[C@@H](CCC(N)=O)C(=O)O` [DIMXLREKLQEEMLQ] (H-DIM[Cit]LREKLQEEMLQ-OH): the IC50 in test [1] (setting [4]) was 983 nM; in test [2] (setting [5]) it was above 40000 nM.
Take `CSCC[C@H](NC(=O)[C@H](CCCNC(=N)N)NC(=O)[C@H](CCCNC(=N)N)NC(=O)[C@@H](N)Cc1ccc(O)cc1)C(=O)N[C@@H](Cc1ccccc1)C(=O)NCC(=O)NCC(=O)N1CCC[C@H]1C(=O)NCC(=O)N[C@H](C(=O)N[C@@H](C)C(=O)N[C@@H](CO)C(=O)N[C@@H](CCCNC(N)=O)C(=O)N1CCC[C@H]1C(=O)N[C@@H](CO)C(=O)O)[C@@H](C)O` [YRRMFGGPGTASXPS] (H-YRRMFGGPGTAS[Cit]PS-OH): the figures for the IC50 in test [1] (setting [4]) and in test [2] (setting [5]) were 334 nM and 6870 nM, respectively.
For `CC(C)C[C@H](NC(=O)[C@H](C)NC(=O)[C@H](CO)NC(=O)CNC(=O)[C@H](CC(C)C)NC(=O)[C@H](CO)NC(=O)[C@H](Cc1ccc(O)cc1)NC(=O)[C@@H](NC(=O)[C@@H](N)CCCNC(=N)N)[C@@H](C)O)C(=O)N[C@@H](CCCNC(N)=O)C(=O)N1CCC[C@H]1C(=O)N[C@@H](CO)C(=O)N[C@H](C(=O)N[C@@H](CO)C(=O)N[C@@H](CCCNC(=N)N)C(=O)O)[C@@H](C)O` [RTYSLGSALXPSTSR] (H-RTYSLGSAL[Cit]PSTSR-OH) the same measures were 14 nM and 1100 nM.
For the molecule `CC(C)C[C@H](NC(=O)CNC(=O)[C@H](CCCNC(=N)N)NC(=O)[C@@H](N)CCC(=O)O)C(=O)N[C@@H](CCCCN)C(=O)NCC(=O)N[C@@H](Cc1c[nH]cn1)C(=O)N[C@@H](CCCNC(N)=O)C(=O)NCC(=O)N[C@@H](Cc1ccccc1)C(=O)N[C@H](C(=O)NCC(=O)N[C@@H](CC(C)C)C(=O)N[C@@H](CCC(N)=O)C(=O)NCC(=O)O)[C@@H](C)O` [ERGLKGHXGFTGLQG] (H-ERGLKGH[Cit]GFTGLQG-OH), the IC50 in test [1] (setting [3]) was determined as 28 nM.

A word on the IC50: it is the concentration that inhibits the measured activity by half.

These data come from publication PMC5421785, “Citrullination only infrequently impacts peptide binding to HLA class II MHC” (PLoS ONE, 2017).
